# Measured values from patent publication US8217001B2, “Modification of feeding behavior” (Imperial Innovations Limited, priority 2001, dated 2012).
# Like-named read-outs stand apart in the source and are kept apart here.
# T1: NPY Y2 receptor (Homo sapiens, UniProt P49146)
# T1 construct: host or cells: unnamed cell line expressing the receptor
# T1 sequence (P49146 1-381): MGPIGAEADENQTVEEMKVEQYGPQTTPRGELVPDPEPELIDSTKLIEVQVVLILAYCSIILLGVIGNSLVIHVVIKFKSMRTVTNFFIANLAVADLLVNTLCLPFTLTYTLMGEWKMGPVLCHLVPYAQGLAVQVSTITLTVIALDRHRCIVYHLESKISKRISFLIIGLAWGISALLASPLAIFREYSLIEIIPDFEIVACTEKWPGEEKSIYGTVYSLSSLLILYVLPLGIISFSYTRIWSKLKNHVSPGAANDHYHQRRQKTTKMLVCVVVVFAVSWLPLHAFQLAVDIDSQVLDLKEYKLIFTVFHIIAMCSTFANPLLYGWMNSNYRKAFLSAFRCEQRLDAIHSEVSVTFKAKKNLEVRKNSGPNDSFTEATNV
# T2: NPY Y5 receptor (Homo sapiens, UniProt Q15761)
# T2 construct: host or cells: unnamed cell line expressing the receptor
# T2 sequence (Q15761 1-445): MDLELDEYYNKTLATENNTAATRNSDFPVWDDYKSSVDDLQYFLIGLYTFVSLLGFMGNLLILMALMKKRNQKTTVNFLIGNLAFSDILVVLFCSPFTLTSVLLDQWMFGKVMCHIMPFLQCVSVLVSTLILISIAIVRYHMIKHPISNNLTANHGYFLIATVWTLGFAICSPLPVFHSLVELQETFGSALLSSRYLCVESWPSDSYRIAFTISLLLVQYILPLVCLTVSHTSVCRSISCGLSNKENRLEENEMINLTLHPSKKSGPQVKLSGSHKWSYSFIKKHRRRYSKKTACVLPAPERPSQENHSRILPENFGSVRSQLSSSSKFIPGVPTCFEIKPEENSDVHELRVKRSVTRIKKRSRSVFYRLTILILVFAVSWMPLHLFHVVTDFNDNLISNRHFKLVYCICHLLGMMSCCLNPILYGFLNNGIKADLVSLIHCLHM
# Key:
# [1] = tested on: GABAergic IPSCs onto POMC neurons; experiment: GABAergic inhibitory postsynaptic currents (IPSCs) recorded in POMC neurons of hypothalamic slices; type: cell-based, mouse
# POMC neurons = experiment: Whole cell recordings of membrane potential, currents and action potentials in EGFP-labeled POMC neurons of hypothalamic (ARC) slices; type: cell-based, mouse
# [2] = Food intake after injection into the arcuate nucleus of fasted rats; type: in vivo, rat; settings: rats fasted 24 hours
# Description: (§1) Arcuate and paraventricular nuclei cannulations and injections were performed as previously described (Glaum et al., Mol. Pharmacol. 50, 230-5, 1996; Lee et al., J. Physiol (Lond) 515, 439-52; 1999; Shiraishi et al., Nutrition 15, 576-9, 1999). Correct intranuclear cannula placement was confirmed histologically at the end of each study period (Glaum et al., Mol. Pharmacol. 50, 230-5, 1996; Lee et al., J. Physiol (Lond) 515, 439-52, 1999; Shiraishi et al., Nutrition 15, 576-9, 1999). All animal procedures were approved under the British Home Office Animals (Scientific Procedures) Act, 1986. All injection studies on fasting animals were performed in the early light-phase (0800-0900). All dark-phase feeding studies injections were performed just prior to lights off.
# [3] = Food intake after injection into the paraventricular nucleus (PVN) of fasted rats; type: in vivo, rat
# Description: as §1, with “Animals: Male Wistar rats (200-250 g), 7-8 weeks old (Charles River Laboratories, United Kingdom) were maintained under controlled temperature (21-23° C.) and light conditions (lights on 07:00-19:00) with ad libitum access to water and food (RM1 diet; SDS Ltd., Witham, United Kingdom) except where stated. Arcuate” for “Arcuate”
# [4] = tested on: NPY and α-MSH release from hypothalamic explants; experiment: Neuropeptide release from hypothalamic explants (RIA); type: cell-based, rat; settings: 50 nM
# Description: Hypothalamic explants: Male Wistar rats were killed by decapitation and the whole brain immediately removed, mounted with the ventral surface uppermost and placed in a vibrating microtome (Biorad, Microfield Scientific Ltd., Devon, UK). A 1.7 mm slice was taken from the base of the brain to include the PVN and the ARC and immediately transferred to 1 ml of artificial CSF (aCSF) (Kim et al., J. Clin. Invest. 105, 1005-11, 2000) equilibrated with 95% O2 and 5% CO2 and maintained at 37° C. After an initial 2-hour equilibration period, with aCSF replaced every 60 minutes, the hypothalami were then incubated for 45 minutes in 600 μl aCSF (basal period) before being exposed to the Y2A […] in 600 μl aCSF. Finally, the viability of the tissue was verified by a 45 minute exposure to 56 mM KCL; isotonicity was maintained by substituting K^+ for Na^+.
# NPY Y2 receptor = target: T1, NPY Y2 receptor; experiment: Receptor-binding studies on cell lines expressing NPY Y2 receptor
# NPY Y1 receptor = NPY Y1 receptor (Homo sapiens, UniProt P25929); experiment: biochemical; type: binding
# Chain of NPY Y1 receptor (P25929 whole entry): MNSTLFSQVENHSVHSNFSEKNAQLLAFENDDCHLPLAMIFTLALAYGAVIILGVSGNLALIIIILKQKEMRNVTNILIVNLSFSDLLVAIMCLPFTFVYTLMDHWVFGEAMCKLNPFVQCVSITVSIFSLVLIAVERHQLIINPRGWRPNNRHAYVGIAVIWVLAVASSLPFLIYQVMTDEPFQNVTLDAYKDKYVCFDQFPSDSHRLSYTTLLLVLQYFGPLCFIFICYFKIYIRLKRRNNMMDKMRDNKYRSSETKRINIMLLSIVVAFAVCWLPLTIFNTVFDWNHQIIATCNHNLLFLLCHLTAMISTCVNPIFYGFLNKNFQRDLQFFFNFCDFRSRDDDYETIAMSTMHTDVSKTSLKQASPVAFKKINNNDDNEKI
# NPY Y5 receptor = target: T2, NPY Y5 receptor; experiment: Receptor-binding studies on cell lines expressing NPY Y5 receptor
# [5] = tested on: non-POMC neurons in the arcuate nucleus; experiment: Recordings from non-fluorescent (non-POMC) neurons in the arcuate nucleus; type: cell-based, mouse; settings: 13 cells tested; hyperpolarized 5, depolarized 3
molecule,measurement,setting,value
"NC1=N[C@H](O)[C@H]2[C@H]3O[C@]4(O)O[C@@H]([C@@H](O)[C@@]2(N1)[C@@H]4O)[C@]3(O)CO [TTX, tetrodotoxin]",effect on large amplitude IPSCs,[1],abolished large IPSCs
"Ac-LRHYLNLLTRQRY-NH2 (C-terminus assumed) [Y2A, N-acetyl (Leu^28, Leu^31) NPY (24-36)]",depolarization of POMC neurons,"POMC neurons; whole cell, PYY3-36 n=22, Y2A n=9",8.7±1.8 mV
same,reduction of frequency of IPSCs onto POMC neurons,[1],44.4±9.3%
same,"food intake after intra-arcuate injection, dose dependence",[2]; 100 fmol-1 nmol,inhibited food intake
same,chow ingested 2 hours post-injection,"[2]; intra-arcuate, 0.1 μmol, n=8",6.2 ± 0.5 g
same,food intake after PVN injection,"[3]; 100 fmol-1 nmol, rats fasted 24 hours",no alteration of food intake
same,food intake 2 hour post-injection,"[3]; PVN, 0.1 nmol, n=8",8.0 ± 0.6 g
same,α-MSH release from hypothalamic explants,[4]; 45 minutes (FIG. 8e),concomitant increase in α-MSH release
same,NPY release from hypothalamic explants,[4]; 45 minutes (FIG. 8d),significantly decreased NPY release
"Ac-LRHYLNLLTRQRY-NH2 [Y2A, N-acetyl (Leu^28, Leu^31) NPY (24-36)]",IC50,NPY Y2 receptor,1.3 ± 0.2 nM
same,IC50,NPY Y1 receptor,> 5000 nM
same,IC50,NPY Y5 receptor,> 5000 nM
CTAP,effect on the current induced by Met-Enk in POMC cells,POMC neurons,completely prevented the current induced by Met-Enk
D-Trp^8-γMSH,frequency of action potentials,POMC neurons; 7 nM,decreased the frequency of action potentials
NPY,IPSCs in the presence of tetrodotoxin (TTX),[1],still inhibited IPSCs
same,decrease of frequency of GABAergic IPSCs,[1],55%
same,time to decrease of IPSC frequency,[1]; 100 nM,≤ 3 min
met-enkephalin,spontaneous action potential generation,POMC neurons; 30 μM,prevented spontaneous action potential generation
same,time to hyperpolarization (rapid),POMC neurons; 30 μM,35 to 40 s
same,reversal-potential of the inwardly-rectifying opioid current,"POMC neurons; 6.5 mM K+ Krebs, n=3",approximately −60 mV
picrotoxin,effect on IPSCs,[1]; 100 μM,blocked all IPSCs
"leptin: leptin applied to identified POMC cells in slice preparations (protein, UniProt P41160 22-167, looked up) Leptin: VPIQKVQDDTKTLIKTIVTRINDISHTQSVSAKQRVTGLDFIPGLHPILSLSKMDQTLAVYQQVLTSLPSQNVLQIANDLENLRDLLHLLAFSKSCSLPQTSGLQKPESLDGVLEASLYSTEVVALSRLQGSLQDILQQLDVSPEC",reversal of the small inward current,POMC neurons; 100 nM,approximately −20 mV
same,mean±SEM depolarization,"POMC neurons; 100 nM, n=45",9.7±1.2 mV
same,time to depolarization,POMC neurons; 0.1-100 nM,2 to 10 min
same,depolarization of POMC cells,"POMC neurons; 0.1-100 nM, 72 of 77 cells",3-30 mV
same,EC50,POMC neurons; read-out: EC50 of concentration dependent depolarization of POMC cells,5.9 nM
same,IPSCs in the presence of tetrodotoxin (TTX),[1],still inhibited IPSCs
same,decrease of frequency of GABAergic IPSCs,[1]; 100 nM (leptin: 5 out of 15 cells; NPY: all 12 cells),25%
same,effect on adjacent non-fluorescent ARC cells,[5],no effect on 5 of 13 adjacent non-fluorescent cells tested
